Assay results taken from patent US20250145715A1, “B7-H3 TARGETING FUSION PROTEINS AND METHODS OF USE THEREOF” (GT Biopharma, Inc., priority 2021, published 2025).

How the values were obtained:
Format in all cases: cell-based, human
RPMI-8226 cells = test: IncuCyte Zoom NK cell killing of RPMI-8226; details: bortezomib 10 nM or lenalidomide 5 μM with B7-H3-TriKE and NK cells, 48 hours
From the text: (§1) FIGS. 8A-8D illustrate the ability of peripheral blood NK cells with or without B7-H3-TriKE to kill myeloma cells in live imaging IncuCyte Zoom assays. FIG. 8A is a graph showing the effects with effector:target (E:T) ratios of 2:1 and 4:1 on H929 cells. FIG. 8B is a graph showing the effects with effector:target (E:T) ratios of 2:1 and 4:1 on MM1S cells. FIG. 8C is a graph showing the effects with effector:target (E:T) ratios of 2:1 and 4:1 on RPMI-8226 cells. FIG. 8D is a graph showing the effects with effector:target (E:T) ratios of 2:1 and 4:1 on U266 cells.
(§2) FIGS. 9A-9D illustrate the efficacy of B7-H3-TriKE with the proteasome inhibitor bortezomib (10 nM) and the immunomodulatory drug lenalidomide (5 μM). FIG. 9A is a graph showing the effect of the combination therapy on H929 cells after 48 hours. FIG. 9B is a graph showing the effect of the combination therapy on RPMI-8226 cells after 48 hours. FIG. 9C is a graph showing the effect of the combination therapy on MM1S cells after 48 hours. FIG. 9D is a graph showing the effect of the combination therapy on U266 cells after 48 hours.
(§3) The ability of peripheral blood NK cells with or without B7-H3-TriKE to kill myeloma cells was compared in live imaging IncuCyte Zoom assays with escalating doses of TriKE. Maximal killing occurred with 3 nM concentration.
(§4) The efficacy of B7-H3-TriKE with the proteasome inhibitor bortezomib (10 nM) and the immunomodulatory drug lenalidomide (5 μM) was also tested. Cytotoxicity curves were compared by repeated measures ANOVA and performed in triplicate.

MM1S cells = test: IncuCyte Zoom NK cell killing of MM1S; details: bortezomib 10 nM or lenalidomide 5 μM with B7-H3 TriKE and NK cells, 48 hours; not statistically significant
From the text: (§5) FIGS. 7A-7B illustrate the ability of peripheral blood NK cells with or without B7-H3-TriKE to kill myeloma cells in live imaging IncuCyte Zoom assays. FIG. 7A is a graph showing the effects with effector:target (E:T) ratios of 2:1 and 4:1 on MM1S cells. FIG. 7B is a graph showing the effects with effector:target (E:T) ratios of 2:1 and 4:1 on U266 cells.
as §1, §2, §3, §4

H929 cells = test: IncuCyte Zoom NK cell killing of H929; details: bortezomib 10 nM or lenalidomide 5 μM with B7-H3-TriKE and NK cells, 48 hours
From the text: as §1, §2, §3, §4

U266 cells = test: IncuCyte Zoom NK cell killing of U266; details: bortezomib 10 nM with B7-H3-TriKE and NK cells, 48 hours
From the text: as §5, §1
as §2, with “FIG. 9D is a graph showing the effect of the combination therapy on U266 cells after 48 hours.” left out

T cells (CD56−CD3+) = test: T cell proliferation in PBMCs, CellTrace Violet dilution; details: 7 days, 5 nM equimolar
Method: FIGS. 2A-2H illustrates that cam1615B7-H3 TriKE induces potent, and specific, natural killer (NK) cell proliferation. Peripheral blood mononuclear cells (PBMCs) were CellTrace Violet labeled and incubated for seven days at 5 nM equimolar concentrations of rhIL-15 or cam1615B7-H3 TriKE. On day 7, the cells were harvested and stained for flow cytometric evaluation. […] FIG. 2B is a graph illustrating pooled data showing the overall proportion of NK cells that proliferated. FIG. 2C is a graph illustrating pooled data showing the proportion of NK cells that highly proliferated (measured as proliferation beyond three divisions). FIG. 2D is a graph illustrating pooled data showing NK cell counts in the cultures (N=9). FIG. 2E is a representative histogram showing T cell (CD56− CD3+) proliferation. FIG. 2F is a graph illustrating pooled data showing the overall proportion of T cells proliferated. FIG. 2G is a graph illustrating pooled data showing the proportion of T cells highly proliferated. FIG. 2H is a graph illustrating pooled data showing T cell counts in the cultures (N=9). * p<0.05, ** p<0.01, *** p<0.001.
The wild-type IL-15 moiety in the cam1615B7-H3 TriKE was designed to induce targeted delivery of a proliferative signal to NK cells. To test this, proliferation assays evaluating dilution of a CellTrace dye over a 7-day period were carried out on PBMCs treated with no treatment (NT), monomeric rhIL-15 (IL15), or the TriKE (cam1615B7-H3). At the end of the seven days, cells were harvested and proliferation was evaluated by gating on CD56+CD3− cells. […] Since IL-15 acts on both NK cells and T cells, specificity was evaluated next by gating on T cells (CD56-CD3+).
To measure the ability of the TriKE to specifically induce NK cell expansion via the IL-15 moiety, PBMCs from healthy donors were labeled with CellTrace Violet Proliferation Dye (Invitrogen, Carlsbad, CA, USA) according to kit specifications. After staining, cells were cultured with TriKEs at noted concentrations, or equimolar concentrations of controls, and incubated in a humidified atmosphere containing 5% CO2 at 37° C. for seven days. Cells were harvested, stained for viability with Live/Dead reagent (Invitrogen, Carlsbad, CA, USA) and surface stained for anti-CD56 PE/Cy7 (Biolegend, San Diego, CA, USA) and anti-CD3 PE-CF594 (BD Biosciences, Franklin Lakes, NJ, USA) to gate on the viable CD56+ CD3− NK cell population or the CD56-CD3+ T cell population. Data analysis was performed using FlowJo software (FlowJo LCC, version 7.6.5, Ashland, OR, USA).

[1] = test system: OVCAR8 ovarian cancer cells; test: NK cell CD107a / IFNγ flow cytometry against OVCAR8; details: individual components with PBMCs and OVCAR8
Method: FIG. 29A is a graph illustrating pooled proportion of NK cells from healthy donors expressing CD107a+ (degranulation) against OVCAR8 and MA148 targets. FIG. 29B is a graph illustrating pooled proportion of NK cells from healthy donors expressing IFNγ cytokine production against OVCAR8 and MA148 targets.
Healthy donor or ovarian cancer PBMC cells were incubated with ovarian tumor targets at 2:1 E:T ratio for 4 hrs with 30 nM TriKE or control condition. FIG. 30A is a graph illustrating pooled proportion of NK cells from healthy donors expressing CD107a+ (degranulation) against OVCAR8 targets (N=8). FIG. 30B is a graph illustrating pooled proportion of NK cells from healthy donors expressing IFNγ cytokine production against OVCAR8 targets (N=8). FIG. 30C is a graph illustrating pooled proportion of NK cells from healthy donors expressing CD107a+ (degranulation) against OVCAR3 targets (N=4). FIG. 30D is a graph illustrating pooled proportion of NK cells from healthy donors expressing IFNγ cytokine production against OVCAR3 targets (N=4). FIG. 30E is a graph illustrating pooled proportion of NK cells from healthy donors expressing CD107a+ (degranulation) against OVCAR5 targets (N=7). FIG. 30F is a graph illustrating pooled proportion of NK cells from healthy donors expressing IFNγ cytokine production against OVCAR5 targets (N=7). […] FIG. 30I is a graph illustrating that tumor killing was evaluated using IncuCyte imaging assay. […] The percentage of Live (Nuclight Red+Caspase 3/7−) tumor cells was quantified over a 48-h period and normalized to tumor alone. Readings were obtained every 15 min (representative of four separate experiments). * p<0.05, ** p<0.01, *** p<0.001, and **** p<0.0001.
ADCC was measured in a flow cytometry assay by evaluating degranulation via CD107a (lysosomal-associated membrane protein LAMP-1) and intracellular IFNγ production. […] Samples were washed and evaluated in an LSRII flow cytometer (BD Biosciences, San Jose, CA, USA).
The ability of cam1615B7-H3 TriKE to mediate NK cell activity against ovarian cancer cells was evaluated. […]

Compound | killing of RPMI-8226 in combination therapy (RPMI-8226 cells) | killing of MM1S in combination therapy (MM1S cells) | killing of H929 in combination therapy (H929 cells) | killing of U266 in combination therapy (U266 cells) | overall T cell proliferation (T cells (CD56−CD3+)) | NK cell activity against OVCAR8 by individual components [1]
CC(C)C[C@H](NC(=O)[C@H](Cc1ccccc1)NC(=O)c1cnccn1)B(O)O [bortezomib, reference compound] | synergistic killing | trend toward improved killing | did not further enhance killing | enhanced killing | – | –
Nc1cccc2c1CN(C1CCC(=O)NC1=O)C2=O (stereo not drawn) [lenalidomide] | synergistic killing | trend toward improved killing | synergistic killing | – | – | –
rhIL-15: monomeric recombinant human IL-15 control [reference compound] | – | – | – | – | robust proliferation of T cells | do not enhance NK cell activity
